Results as given in US11178873B2, “Cyclic N-carboxamide compounds useful as herbicides” (FMC CORPORATION, priority 2015, dated 2021).

Legend:
Format in all cases: in vivo
[1] = system: ducksalad (Heteranthera limosa); assay: Test B flooded paddy test, ducksalad; conditions: Flood, scale 0 to 100 (0 no effect, 100 complete control), 13 to 15 d
How it was run: (§1)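 Ratings use a 0-100 visual scale, where 100 is complete control, and compare treated plants with controls after 13 to 15 d of greenhouse growth. Compound went straight into paddy water kept 3 cm over the soil surface, applied to seedlings at the 2-leaf stage.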

[2] = system: wheat (Triticum aestivum); assay: Test A postemergence, wheat; conditions: 0 to 100 scale, 0 no effect, 100 complete control
How it was run: (§2)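 Compounds are applied in a non-phytotoxic solvent with surfactant, either preemergence as a directed soil spray or postemergence at the one- to two-leaf stage. Plants grow in loam–sand soil in a greenhouse, and injury is scored visually against untreated controls after about 10 d (0–100 scale).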

rice (Oryza sativa) = assay: Test B flooded paddy test, rice; conditions: Flood, scale 0 to 100 (0 no effect, 100 complete control), 13 to 15 d
How it was run: as §1

[3] = system: foxtail, giant (giant foxtail, Setaria faberii); assay: Test A postemergence, foxtail, giant; conditions: 0 to 100 scale, 0 no effect, 100 complete control
How it was run: as §2

corn (Zea mays) [4] = assay: Test A postemergence, corn; conditions: 0 to 100 scale, 0 no effect, 100 complete control
How it was run: as §2

[5] = system: barnyardgrass (Echinochloa crus-galli); assay: Test B flooded paddy test, barnyardgrass; conditions: Flood, scale 0 to 100 (0 no effect, 100 complete control), 13 to 15 d
How it was run: as §1

[6] = system: morningglory (Ipomoea spp.); assay: Test A preemergence, morningglory; conditions: 0 to 100 scale, 0 no effect, 100 complete control
Excerpt: (§3) Seeds of plant species selected from barnyardgrass (Echinochloa crus-galli), crabgrass, large (large crabgrass, Digitaria sanguinalis), kochia (Kochia scoparia), ragweed (common ragweed, Ambrosia elatior), morningglory (Ipomoea spp.), velvetleaf (Abutilon theophrasti), ryegrass, Italian (Italian ryegrass, Lolium multiflorum), foxtail, giant (giant foxtail, Setaria faberii), wheat (Triticum aestivum), corn (Zea mays), and pigweed (Amaranthus retroflexus), were planted into a blend of loam soil and sand and treated preemergence with a directed soil spray using test chemicals formulated in a non-phytotoxic solvent mixture which included a surfactant. At the same time, plants selected from these crop and weed species and also blackgrass (Alopecurus myosuroides), and galium (catchweed bedstraw, Galium aparine), were planted in pots containing the same blend of loam soil and sand and treated with postemergence applications of test chemicals formulated in the same manner. Plants ranged in height from 2 to 10 cm and were in the one- to two-leaf stage for the postemergence treatment. Treated plants and untreated controls were maintained in a greenhouse for approximately 10 d, after which time all treated plants were compared to untreated controls and visually evaluated for injury. Plant response ratings, summarized in Table A, are based on a 0 to 100 scale where 0 is no effect and 100 is complete control. A dash (-) response means no test result.

[7] = system: crabgrass, large (large crabgrass, Digitaria sanguinalis); assay: Test A preemergence, crabgrass, large; conditions: 0 to 100 scale, 0 no effect, 100 complete control
Excerpt: as §3

[8] = system: barnyardgrass (Echinochloa crus-galli); assay: Test A postemergence, barnyardgrass; conditions: 0 to 100 scale, 0 no effect, 100 complete control
How it was run: as §2

[9] = system: pigweed (Amaranthus retroflexus); assay: Test A postemergence, pigweed; conditions: 0 to 100 scale, 0 no effect, 100 complete control
How it was run: as §2

[10] = system: sedge, umbrella (small-flower umbrella sedge, Cyperus difformis); assay: Test B flooded paddy test, sedge, umbrella; conditions: Flood, scale 0 to 100 (0 no effect, 100 complete control), 13 to 15 d
How it was run: as §1

[11] = system: pigweed (Amaranthus retroflexus); assay: Test A preemergence, pigweed; conditions: 0 to 100 scale, 0 no effect, 100 complete control
How it was run: as §2

[12] = system: velvetleaf (Abutilon theophrasti); assay: Test A postemergence, velvetleaf; conditions: 0 to 100 scale, 0 no effect, 100 complete control
Excerpt: as §3

[13] = system: crabgrass, large (large crabgrass, Digitaria sanguinalis); assay: Test A postemergence, crabgrass, large; conditions: 0 to 100 scale, 0 no effect, 100 complete control
Excerpt: as §3

[14] = system: barnyardgrass (Echinochloa crus-galli); assay: Test A preemergence, barnyardgrass; conditions: 0 to 100 scale, 0 no effect, 100 complete control
How it was run: as §2

[15] = system: foxtail, giant (giant foxtail, Setaria faberii); assay: Test A preemergence, foxtail, giant; conditions: 0 to 100 scale, 0 no effect, 100 complete control
How it was run: as §2

[16] = system: velvetleaf (Abutilon theophrasti); assay: Test A preemergence, velvetleaf; conditions: 0 to 100 scale, 0 no effect, 100 complete control
Excerpt: as §3

corn (Zea mays) [17] = assay: Test A preemergence, corn; conditions: 0 to 100 scale, 0 no effect, 100 complete control
Excerpt: as §3

[18] = system: morningglory (Ipomoea spp.); assay: Test A postemergence, morningglory; conditions: 0 to 100 scale, 0 no effect, 100 complete control
Excerpt: as §3

[19] = system: wheat (Triticum aestivum); assay: Test A preemergence, wheat; conditions: 0 to 100 scale, 0 no effect, 100 complete control
Excerpt: as §3

[20] = system: ryegrass, Italian (Italian ryegrass, Lolium multiflorum); assay: Test A postemergence, ryegrass, Italian; conditions: 0 to 100 scale, 0 no effect, 100 complete control
How it was run: as §2

[21] = system: blackgrass (Alopecurus myosuroides); assay: Test A postemergence, blackgrass; conditions: 0 to 100 scale, 0 no effect, 100 complete control
How it was run: as §2

kochia (Kochia scoparia) [22] = assay: Test A preemergence, kochia; conditions: 0 to 100 scale, 0 no effect, 100 complete control
How it was run: as §2

[23] = system: ragweed (common ragweed, Ambrosia elatior); assay: Test A preemergence, ragweed; conditions: 0 to 100 scale, 0 no effect, 100 complete control
How it was run: as §2

[24] = system: ragweed (common ragweed, Ambrosia elatior); assay: Test A postemergence, ragweed; conditions: 0 to 100 scale, 0 no effect, 100 complete control
How it was run: as §2

kochia (Kochia scoparia) [25] = assay: Test A postemergence, kochia; conditions: 0 to 100 scale, 0 no effect, 100 complete control
How it was run: as §2

[26] = system: ryegrass, Italian (Italian ryegrass, Lolium multiflorum); assay: Test A preemergence, ryegrass, Italian; conditions: 0 to 100 scale, 0 no effect, 100 complete control
How it was run: as §2

[27] = system: galium (catchweed bedstraw, Galium aparine); assay: Test A postemergence, galium; conditions: 0 to 100 scale, 0 no effect, 100 complete control
How it was run: as §2

O=C(Nc1ccccc1F)N1C(=O)OCC1c1ccc(Cl)cc1 (stereo not shown) [Compound 4]
20: Plant response rating, Crabgrass, Large ([7]; 500 g ai/ha)
0: Plant response rating, Ducksalad ([1]; 250 g ai/ha) | Plant response rating, Wheat ([2]; 125 g ai/ha) | Plant response rating, Wheat ([2]; 500 g ai/ha) | Plant response rating, Rice (rice (Oryza sativa); 250 g ai/ha) | Plant response rating, Foxtail, Giant ([3]; 125 g ai/ha) | Plant response rating, Foxtail, Giant ([3]; 500 g ai/ha) | Plant response rating, Corn (corn (Zea mays) [4]; 125 g ai/ha) | Plant response rating, Corn (corn (Zea mays) [4]; 500 g ai/ha) | Plant response rating, Barnyardgrass ([5]; 250 g ai/ha) | Plant response rating, Morningglory ([6]; 125 g ai/ha) | Plant response rating, Morningglory ([6]; 500 g ai/ha) | Plant response rating, Crabgrass, Large ([7]; 125 g ai/ha) | Plant response rating, Barnyardgrass ([8]; 125 g ai/ha) | Plant response rating, Barnyardgrass ([8]; 500 g ai/ha) | Plant response rating, Pigweed ([9]; 125 g ai/ha) | Plant response rating, Pigweed ([9]; 500 g ai/ha) | Plant response rating, Sedge, Umbrella ([10]; 250 g ai/ha) | Plant response rating, Pigweed ([11]; 125 g ai/ha) | Plant response rating, Pigweed ([11]; 500 g ai/ha) | Plant response rating, Velvetleaf ([12]; 125 g ai/ha) | Plant response rating, Velvetleaf ([12]; 500 g ai/ha) | Plant response rating, Crabgrass, Large ([13]; 125 g ai/ha) | Plant response rating, Crabgrass, Large ([13]; 500 g ai/ha) | Plant response rating, Barnyardgrass ([14]; 125 g ai/ha) | Plant response rating, Barnyardgrass ([14]; 500 g ai/ha) | Plant response rating, Foxtail, Giant ([15]; 125 g ai/ha) | Plant response rating, Foxtail, Giant ([15]; 500 g ai/ha) | Plant response rating, Velvetleaf ([16]; 125 g ai/ha) | Plant response rating, Velvetleaf ([16]; 500 g ai/ha) | Plant response rating, Corn (corn (Zea mays) [17]; 125 g ai/ha) | Plant response rating, Corn (corn (Zea mays) [17]; 500 g ai/ha) | Plant response rating, Morningglory ([18]; 125 g ai/ha) | Plant response rating, Morningglory ([18]; 500 g ai/ha) | Plant response rating, Wheat ([19]; 125 g ai/ha) | Plant response rating, Wheat ([19]; 500 g ai/ha)

O=C(Nc1ccccc1F)N1C(=O)OCC1c1ccc(F)c(F)c1 (stereo not shown) [Compound 3, 4-(3,4-difluorophenyl)-N-(2-fluorophenyl)-2-oxo-3-oxazolidinecarboxamide]
50: Plant response rating, Foxtail, Giant ([15]; 1000 g ai/ha)
20: Plant response rating, Barnyardgrass ([8]; 1000 g ai/ha)
0: Plant response rating, Wheat ([2]; 1000 g ai/ha) | Plant response rating, Corn (corn (Zea mays) [4]; 1000 g ai/ha) | Plant response rating, Morningglory ([6]; 1000 g ai/ha) | Plant response rating, Pigweed ([9]; 1000 g ai/ha) | Plant response rating, Pigweed ([11]; 1000 g ai/ha) | Plant response rating, Velvetleaf ([12]; 1000 g ai/ha) | Plant response rating, Barnyardgrass ([14]; 1000 g ai/ha) | Plant response rating, Velvetleaf ([16]; 1000 g ai/ha) | Plant response rating, Corn (corn (Zea mays) [17]; 1000 g ai/ha) | Plant response rating, Wheat ([19]; 1000 g ai/ha)
90: Plant response rating, Crabgrass, Large ([7]; 1000 g ai/ha)
80: Plant response rating, Crabgrass, Large ([13]; 1000 g ai/ha)
40: Plant response rating, Foxtail, Giant ([3]; 1000 g ai/ha)

O=C1NCC(c2ccccc2)N1C(=O)Nc1ccccc1 (stereo not shown) [Compound 6]
50: Plant response rating, Crabgrass, Large ([7]; 1000 g ai/ha)
0: Plant response rating, Wheat ([2]; 1000 g ai/ha) | Plant response rating, Foxtail, Giant ([3]; 1000 g ai/ha) | Plant response rating, Corn (corn (Zea mays) [4]; 1000 g ai/ha) | Plant response rating, Morningglory ([6]; 1000 g ai/ha) | Plant response rating, Barnyardgrass ([8]; 1000 g ai/ha) | Plant response rating, Pigweed ([9]; 1000 g ai/ha) | Plant response rating, Pigweed ([11]; 1000 g ai/ha) | Plant response rating, Velvetleaf ([12]; 1000 g ai/ha) | Plant response rating, Crabgrass, Large ([13]; 1000 g ai/ha) | Plant response rating, Barnyardgrass ([14]; 1000 g ai/ha) | Plant response rating, Foxtail, Giant ([15]; 1000 g ai/ha) | Plant response rating, Velvetleaf ([16]; 1000 g ai/ha) | Plant response rating, Corn (corn (Zea mays) [17]; 1000 g ai/ha) | Plant response rating, Morningglory ([18]; 1000 g ai/ha) | Plant response rating, Wheat ([19]; 1000 g ai/ha)

O=C1NCC(c2ccc(F)c(F)c2)N1C(=O)Nc1ccccc1F (stereo not shown) [Compound 8]
40: Plant response rating, Ducksalad ([1]; 500 g ai/ha)
0: Plant response rating, Wheat ([2]; 125 g ai/ha) | Plant response rating, Wheat ([2]; 500 g ai/ha) | Plant response rating, Rice (rice (Oryza sativa); 500 g ai/ha) | Plant response rating, Foxtail, Giant ([3]; 125 g ai/ha) | Plant response rating, Foxtail, Giant ([3]; 500 g ai/ha) | Plant response rating, Ryegrass, Italian ([20]; 125 g ai/ha) | Plant response rating, Ryegrass, Italian ([20]; 500 g ai/ha) | Plant response rating, Corn (corn (Zea mays) [4]; 125 g ai/ha) | Plant response rating, Corn (corn (Zea mays) [4]; 500 g ai/ha) | Plant response rating, Barnyardgrass ([5]; 500 g ai/ha) | Plant response rating, Barnyardgrass ([8]; 125 g ai/ha) | Plant response rating, Barnyardgrass ([8]; 500 g ai/ha) | Plant response rating, Pigweed ([9]; 125 g ai/ha) | Plant response rating, Pigweed ([9]; 500 g ai/ha) | Plant response rating, Sedge, Umbrella ([10]; 500 g ai/ha) | Plant response rating, Pigweed ([11]; 125 g ai/ha) | Plant response rating, Pigweed ([11]; 500 g ai/ha) | Plant response rating, Blackgrass ([21]; 125 g ai/ha) | Plant response rating, Blackgrass ([21]; 500 g ai/ha) | Plant response rating, Kochia (kochia (Kochia scoparia) [22]; 125 g ai/ha) | Plant response rating, Kochia (kochia (Kochia scoparia) [22]; 500 g ai/ha) | Plant response rating, Ragweed ([23]; 125 g ai/ha) | Plant response rating, Ragweed ([23]; 500 g ai/ha) | Plant response rating, Ragweed ([24]; 125 g ai/ha) | Plant response rating, Ragweed ([24]; 500 g ai/ha) | Plant response rating, Kochia (kochia (Kochia scoparia) [25]; 125 g ai/ha) | Plant response rating, Kochia (kochia (Kochia scoparia) [25]; 500 g ai/ha) | Plant response rating, Barnyardgrass ([14]; 125 g ai/ha) | Plant response rating, Barnyardgrass ([14]; 500 g ai/ha) | Plant response rating, Foxtail, Giant ([15]; 125 g ai/ha) | Plant response rating, Foxtail, Giant ([15]; 500 g ai/ha) | Plant response rating, Ryegrass, Italian ([26]; 125 g ai/ha) | Plant response rating, Ryegrass, Italian ([26]; 500 g ai/ha) | Plant response rating, Galium ([27]; 125 g ai/ha) | Plant response rating, Galium ([27]; 500 g ai/ha)
